Here are results for 49 compounds from US20250042889A1, “3CLPRO PROTEASE INHIBITOR” (SHANGHAI QILU PHARMACEUTICAL RESEARCH AND DEVELOPMENT …, priority 2021, published 2025).

The test has as its target SARS-COV-2 3CLpro/Mpro protease (Severe acute respiratory syndrome coronavirus 2 (2019-nCoV) (SARS-CoV-2), UniProt P0DTD1). As to the kind of experiment: Inhibitory effect on SARS-COV-2 3CLpro/Mpro protease by fluorescence resonance energy transfer. In kind it is biochemical. Particulars: activity intervals A-D, read-out: IC50 (nM), Inhibition on SARS-CoV-2 3CLpro/Mpro protease.
Regarding `C[C@@H]1CN(C(=O)c2cc(Br)cc([N+](=O)[O-])c2N[C@@H]2CCCN(C(=O)c3cc(=O)[nH]c4cc(Cl)ccc34)C2)C[C@H](C)O1` [Example 129], the IC50 was in the range of 10 to 50 nM. `O=C(N[C@H]1CCCC[C@H]1Nc1c(C(=O)N2CCC(O)CC2)cc(Br)cc1C(F)(F)F)c1cncc2cc(Cl)ccc12` [Example 147]: the IC50 was 10 to 50 nM. Under `CNc1cncc(C(=O)N2C[C@H](Nc3c(C(=O)N4C[C@@H](C)O[C@@H](C)C4)cc(Br)cc3[N+](=O)[O-])C[C@H]2C(=O)Nc2nn(C3CC3)cc2Br)c1` [Example 420] stands 50 to 100 nM; under `CNc1cncc(C(=O)N2C[C@H](Nc3c(C(=O)N4CC5C(C4)C5(C)C)cc(Br)cc3[N+](=O)[O-])C3(CC3)C2)c1` (stereo partly shown) [Example 83], 10 to 50 nM. `C[C@@H]1CN(C(=O)c2cc(Br)cc([N+](=O)[O-])c2N[C@@H]2COCC[C@@H]2NC(=O)c2cncc3ccccc23)C[C@H](C)O1` [Example 214]: the IC50 lay within 10 to 50 nM. Under `Cc1cc(C(=O)N2CCC[C@@H](Nc3c(C(=O)N4C[C@@H](C)O[C@@H](C)C4)cc(Br)cc3[N+](=O)[O-])C2)cc(=O)[nH]1` [Example 27, 4-((R)-3-((4-bromo-2-((2S,6R)-2,6-dimethylmorpholin-4-carbonyl)-6-nitrophenyl)amino)piperidin-1-carbonyl)-6-methylpyridin-2 (1H)-one] stands 10 to 50 nM; under `O=C1CC(C(=O)N2CCC[C@@H](Nc3c(C(=O)N4CCCCC4)cc(Br)cc3[N+](=O)[O-])C2)c2ccccc2N1` (stereo partly shown) [Example 204], 10 to 50 nM. Under `CNc1cncc(C(=O)N[C@H]2CCOC[C@H]2Nc2c(C(=O)N3CCN(CCOC)CC3)cc(Br)cc2[N+](=O)[O-])c1` [Example 221] stands 10 to 50 nM; under `O=C(N[C@H]1CCCC[C@H]1Nc1c(C(=O)N2CC(F)(F)C2)cc(Br)cc1[N+](=O)[O-])c1cncc2ccccc12` [Example 1, N-((1S,2R)-2-((4-bromo-2-(3,3-difluoroazetidin-1-carbonyl)-6-nitrophenyl)amino)cyclohexyl) isoquinolin-4-formamide], 10 to 50 nM; under `[2H]C([2H])([2H])Nc1cncc(C(=O)N2C[C@H](Nc3c(C(=O)N4C[C@@H](C)O[C@@H](C)C4)cc(Br)cc3[N+](=O)[O-])[C@@H](OC)C2)c1` [Example 443], 10 to 50 nM. On to `Cc1c(Br)cncc1C(=O)N1CCC[C@@H](Nc2c(C(=O)N3CCCCC3)cc(Br)cc2[N+](=O)[O-])C1` [Example 46], for which the IC50 lay within 10 to 50 nM. Under `CNc1cncc(C(=O)N[C@H]2CCOC[C@H]2Nc2c(C(=O)N3C[C@@H](C)O[C@H](C)C3)cc(Br)cc2[N+](=O)[O-])c1` [Example 259] stands 10 to 50 nM; under `CNc1cncc(C(=O)N2CCC[C@@H](Nc3c(C(=O)N4CC5CCC(C4)O5)cc(Br)cc3[N+](=O)[O-])C2)c1` [Example 269], 10 to 50 nM. In the case of `CNc1cncc(C(=O)N2CCC[C@@H](Nc3c(C(=O)N4CCO[C@H](C5CC5)C4)cc(Br)cc3[N+](=O)[O-])C2)c1` [Example 342], the IC50 lay in the range of 10 to 50 nM. Under `N#Cc1cc(Cl)cc(C(=O)N2CCCCC2)c1N[C@@H]1CCCN(C(=O)c2cncc3ccccc23)C1` [Example 59] stands 10 to 50 nM; under `CC1(Nc2c(C(=O)N3CCCCC3)cc(Br)cc2[N+](=O)[O-])CCCN(C(=O)c2cncc3ccccc23)C1` (stereo not shown) [Example 102], 10 to 50 nM; under `CNc1cncc(C(=O)N2C[C@H](Nc3c(C(=O)N4CCCCC4)cc(Br)cc3[N+](=O)[O-])[C@@H](OC)C2)c1` [Example 306], 10 to 50 nM. Under `CNc1cncc(C(=O)N2CC(Nc3c(C(=O)N4CCC(C)(C)CC4)cc(Br)cc3[N+](=O)[O-])C(F)(F)C2)c1` (stereo not shown) [Example 166] stands 10 to 50 nM. Under `CNc1cncc(C(=O)N2CCC[C@@H](Nc3c(C(=O)N4C[C@@H](C)N(C)[C@@H](C)C4)cc(Br)cc3[N+](=O)[O-])C2)c1` [Example 79] stands 50 to 100 nM; under `O=C(N[C@H]1CCOC[C@H]1Nc1c(C(=O)N2CCCCC2)cc(Br)cc1[N+](=O)[O-])c1cncc2cc(Cl)ccc12` [Example 184], under 10 nM; under `C[C@@H]1CN(C(=O)c2cc(Br)cc(C(F)(F)F)c2N[C@@H]2CCOC[C@@H]2NC(=O)c2cncc3ccccc23)C[C@H](C)O1` [Example 210], 10 to 50 nM. Take `CNc1cncc(C(=O)N2CCC[C@@H](Nc3c(C(=O)N4CCOC(C)(C)C4)cc(Br)cc3[N+](=O)[O-])C2)c1` [Example 340]: the IC50 was 10 to 50 nM. The result for `CNc1cncc(C(=O)N2CCC[C@@H](Nc3c(C(=O)N4C[C@@H](C)O[C@H](C)C4)cc(Br)cc3[N+](=O)[O-])C2)c1` [Example 212] reads 10 to 50 nM; that for `CNc1cncc(C(=O)N2CCC[C@@H](Nc3c(C(=O)N4CCOC5CC54)cc(Br)cc3[N+](=O)[O-])C2)c1` (stereo partly shown) [Example 294], 10 to 50 nM; that for `CNc1cncc(C(=O)N2CCC[C@@H](Nc3c(C(=O)N4C[C@@H]5C[C@H]4CO5)cc(Br)cc3[N+](=O)[O-])C2)c1` [Example 291], 10 to 50 nM. The result for `O=C(c1cc(Br)cc([N+](=O)[O-])c1N[C@@H]1CCCN(C(=O)C2CNCC(F)(F)C2)C1)N1CCCCC1` (stereo partly shown) [Example 296] reads 10 to 50 nM; that for `CCNc1cncc(C(=O)N2CCC[C@@H](Nc3c(C(=O)N4CCCCC4)cc(Br)cc3[N+](=O)[O-])C2)c1` [Example 260], 10 to 50 nM. Under `CNc1cncc(C(=O)N2C[C@H](Nc3c(C(=O)N4C[C@@H](C)O[C@@H](C)C4)cc(Br)cc3[N+](=O)[O-])C[C@H]2C(=O)Nc2nn(CC(F)(F)F)cc2Br)c1` [Example 417] stands 50 to 100 nM. On to `Cc1cc(C(=O)N2C[C@H](Nc3c(C(=O)N4C[C@H](C)C[C@H](C)C4)cc(Br)cc3[N+](=O)[O-])C3(CC3)C2)cc(=O)[nH]1` [Example 92], for which the IC50 lay in the range of 10 to 50 nM.

For the compound `CNc1cncc(C(=O)N2C[C@H](Nc3c(C(=O)N4C[C@@H](C)O[C@@H](C)C4)cc(Br)cc3[N+](=O)[O-])C[C@H]2C(=O)NC2CC2)c1` [Example 388], the IC50 fell in the range of 50 to 100 nM. The result for `C[C@@H]1CN(C(=O)c2cc(Br)cc([N+](=O)[O-])c2N[C@@H]2CCN(C(=O)c3cncc(Br)c3)C2)C[C@H](C)O1` [Example 76] reads under 10 nM; that for `CNc1cncc(C(=O)N2CCC[C@@H](Nc3c(C(=O)N4C[C@@H](C)C[C@H](C)C4)cc(Br)cc3[N+](=O)[O-])C2)c1` [Example 257], 10 to 50 nM; that for `CNc1cncc(C(=O)N2CCC[C@@H](Nc3c(C(=O)N4CCC[C@H](OC)C4)cc(Br)cc3[N+](=O)[O-])C2)c1` [Example 239], 10 to 50 nM. Under `CNc1cncc(C(=O)N2CCC[C@@H](Nc3c(C(=O)N4CCC(F)(F)C4)cc(Br)cc3[N+](=O)[O-])C2)c1` [Example 255] stands 10 to 50 nM; under `CNc1cncc(C(=O)N2C[C@H](Nc3c(C(=O)N4C[C@@H](C)O[C@@H](C)C4)cc(Br)cc3[N+](=O)[O-])CC2C(=O)Nc2cc(Cl)n(C)n2)c1` (stereo partly shown) [Example 407], 50 to 100 nM; under `CNc1cncc(C(=O)N2C[C@H](Nc3c(C(=O)N4C[C@@H](C)O[C@@H](C)C4)cc(Br)cc3[N+](=O)[O-])C[C@H]2C(=O)N[C@@H]2COC(=O)C2)c1` [Example 421], 100 to 200 nM. The result for `CNc1cncc(C(=O)N2CCC[C@@H](Nc3c(C(=O)N4CC(F)(F)OC(F)(F)C4)cc(Br)cc3[N+](=O)[O-])C2)c1` [Example 368, (R)-(5-bromo-2-((1-(5-(methylamino)nicotinoyl)piperidin-3-yl)amino)-3-nitrophenyl)(2,2,6,6-tetrafluoromorpholinyl)methanone] reads 10 to 50 nM; that for `O=C1C[C@H](C(=O)N2CCC[C@@H](Nc3c(C(=O)N4CCCCC4)cc(Br)cc3[N+](=O)[O-])C2)c2ccccc2N1` [Example 264], 10 to 50 nM. Consider `CNc1cncc(C(=O)N2CCC[C@@H](Nc3c(C(=O)N4CCC5(CCO5)CC4)cc(Br)cc3[N+](=O)[O-])C2)c1` [Example 285], for which the IC50 lay in the range of 10 to 50 nM. The result for `O=C(c1cncc(O)c1)N1CCC[C@@H](Nc2c(C(=O)N3CCC(F)(F)CC3)cc(Br)cc2[N+](=O)[O-])C1` [Example 50] reads 50 to 100 nM; that for `O=C(N[C@H]1CCCC[C@H]1Nc1c(C(=O)N2CCCCC2)cc(Br)cc1C(F)(F)F)c1cncc2ccccc12` [Example 9, N-((1S,2R)-2-((4-Bromo-2-(piperidin-1-carbonyl)-6-(trifluoromethyl)phenyl)amino)cyclohexyl) isoquinolin-4-formamide], under 10 nM. Under `C[C@H]1CN(C(=O)c2cc(Br)cc([N+](=O)[O-])c2N[C@H]2CN(C(=O)c3cncc(Br)c3)CC2(C)C)C[C@H](C)O1` [Example 225] stands under 10 nM; under `Cc1cc(C(=O)N2C[C@H](Nc3c(C(=O)N4CCC5(CC4)CC5)cc(Br)cc3[N+](=O)[O-])C3(CC3)C2)cc(=O)[nH]1` [Example 94], 10 to 50 nM.

On to `CNc1cncc(C(=O)N2C[C@H](Nc3c(C(=O)N4C[C@@H](C)O[C@@H](C)C4)cc(Br)cc3[N+](=O)[O-])C[C@H]2C#Cc2cnoc2)c1` [Example 400], for which the IC50 lay in the range of 100 to 200 nM.

For the compound `CNc1cncc(C(=O)N2CC(Nc3c(C(=O)N4C[C@H](C)C[C@H](C)C4)cc(Br)cc3[N+](=O)[O-])C(F)(F)C2)c1` (stereo partly shown) [Example 100], the IC50 lay within 10 to 50 nM. As to `O=C(N[C@H]1CCCC[C@H]1Nc1c(C(=O)N2CCNCC2)cc(Br)cc1C(F)(F)F)c1cncc2cc(Cl)ccc12` [Example 143], the IC50 lay in the range of 10 to 50 nM. On to `CSc1cncc(C(=O)N2CCC[C@@H](Nc3c(C(=O)N4CCCCC4)cc(Br)cc3[N+](=O)[O-])C2)c1` [Example 261], for which the IC50 is 10 to 50 nM. Take `O=C(N[C@H]1CCCC[C@H]1Nc1c(C(=O)N2CCCCC2)cc(Br)cc1[N+](=O)[O-])c1cncc2ccccc12` [Example 2, N-((1S,2R)-2-((4-bromo-2-nitro-6-(piperidin-1-carbonyl)phenyl)amino)cyclohexyl) isoquinolin-4-formamide]: the IC50 is under 10 nM. The result for `CNc1cncc(C(=O)N2CCC[C@@H](Nc3c(C(=O)N4CCC(O)(C(F)(F)F)CC4)cc(Br)cc3[N+](=O)[O-])C2)c1` [Example 240] reads 10 to 50 nM.
